Data on five compounds can be found in ChEMBL document CHEMBL1201862, “PubChem BioAssay data set” (2004).

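The compound was tested at five concentrations on cells cultured in 96-well plates, with a 48-hour exposure period. GI50 = concentration required for 50% inhibition of growth.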 Active and inactive are the calls of the source. Rule as the data show it: active = GI50 up to about 1.1 µM and inactive = higher.

Holding throughout (test): NCI anticancer screen, dose series, 48 h
The subject of test [1] is ACHN.
Test [2] deals with DLD-1.
The test system of test [3] is EKVX.
Test [4] concerns HCC 2998.
Test [5] concerns HCT-116.
The test system of test [6] is HOP-62.
For test [7], the system named is IGROV-1.
For test [8], the system named is MDA-MB-231.
Test [9] deals with NCI-H460.
The test system of test [10] is OVCAR-3.
The subject of test [11] is PC-3.
Test [12] relates to RXF 393.
Test [13] has as its system SF-268.
Test [14] deals with SK-MEL-28.
For test [15], the system named is SK-MEL-2.
Test [16] concerns SNB-19.
Test [17] has as its system SW-620.
The subject of test [18] is U-251.
The test system of test [19] is UACC-257.
Test [20] concerns UACC-62.

In the case of `N=c1nc(N)c2cc3c(N)nc(=N)c3cc12`, the GI50 in test [1] is 63.5 µM (inactive); in test [2], > 73.5 µM (inactive); in test [3] it was 25.2 µM (inactive); in test [4], 31.3 µM (inactive); in test [5] it was 4.55 µM (inactive); in test [6], 12.4 µM (inactive). The GI50 in test [7] was > 100 µM (inactive); in [8] it was 2.69 µM (inactive); in [9] it was 22.5 µM (inactive); in test [10] it was 27.9 µM (inactive); in test [11] it was 36.1 µM (inactive); in test [12], 6.32 µM (inactive). The GI50 in test [13] was 2.62 µM (inactive); in [14] it was 2.45 µM (inactive); in test [15], 3.31 µM (inactive); in test [16] it was 58.6 µM (inactive); in test [17], 5.27 µM (inactive); in test [18] it was 11.5 µM (inactive). Also, the GI50 in test [19] was 3.37 µM (inactive); in test [20], 3.72 µM (inactive).

`Nc1nncs1`: the GI50 is 1520 µM (inactive) in test [1]; 641 µM (inactive) in test [2]; 1320 µM (inactive) in [3]; 2160 µM (inactive) in [4]; 1500 µM (inactive) in test [5]; 724 µM (inactive) in test [6]. Moreover, the GI50 is 2580 µM (inactive) in [7]; 2320 µM (inactive) in [8]; 692 µM (inactive) in test [9]; 2400 µM (inactive) in [10]; 2610 µM (inactive) in [11]; 2930 µM (inactive) in test [12]. In addition, the GI50 in [13] is 3950 µM (inactive); in [14], 1980 µM (inactive); in test [15], > 5000 µM (inactive); in test [16], 3730 µM (inactive); in [17], 1260 µM (inactive); in test [18], 3100 µM (inactive). The results for the GI50 in test [19] and in test [20] were 705 µM (inactive) and 1910 µM (inactive), respectively.

Consider `CCCCNCCCNCCCNC(=O)c1csc(-c2csc(CCNC(=O)C(NC(=O)C(C)C(O)C(C)NC(=O)C(NC(=O)c3nc(C(CC(N)=O)NCC(N)C(N)=O)nc(N)c3C)C(OC3OC(CO)C(O)C(O)C3OC3OC(CO)C(O)C(OC(N)=O)C3O)c3c[nH]cn3)C(C)O)n2)n1` (centres undefined), for which the GI50 in test [1] is < 0.0187 µM (active); in test [2], 20.9 µM (inactive); in test [3], 14 µM (inactive); in [4] it was 43.7 µM (inactive); in test [5], 0.0998 µM (active); in [6], 0.174 µM (active). Further, the GI50 was 4.04 µM (inactive) in [7]; 30.3 µM (inactive) in test [8]; 0.0264 µM (active) in [9]; 2.86 µM (inactive) in [10]; 23.6 µM (inactive) in test [11]; 0.253 µM (active) in test [13]. The GI50 in test [14] was 13.6 µM (inactive); in test [15] it was 2.25 µM (inactive); in [16] it was 6.89 µM (inactive); in test [17], 15.2 µM (inactive); in test [18] it was 0.489 µM (active); in test [19], 14.3 µM (inactive). Besides, in test [20], the GI50 is 0.362 µM (active).

With `Nc1nc2[nH]cnc2c(=S)[nH]1` [THIOGUANINE], the GI50 in test [1] was 1.86 µM (inactive); in [2], 0.962 µM (active); in test [3], 2.03 µM (inactive); in test [4], 0.957 µM (active); in test [5], 0.538 µM (active); in [6], 0.78 µM (active). The GI50 in [7] is 4.85 µM (inactive); in test [8] it was 2.51 µM (inactive); in test [9] it was 0.624 µM (active); in test [10], 0.767 µM (active); in test [11] it was 1.92 µM (inactive); in test [12] it was 0.865 µM (active). For the same compound, the GI50 was 1.09 µM (active) in test [13]; 9.4 µM (inactive) in [14]; 1 µM (active) in test [15]; 76.9 µM (inactive) in test [16]; 1.45 µM (inactive) in [17]; 5.12 µM (inactive) in test [18]. Also, the GI50 was 2.1 µM (inactive) in [19] and 0.537 µM (active) in [20].

Take `COc1cc(/C=C/C(=O)Oc2ccccc2)ccc1C(=O)O/C=C/c1ccccc1`: the GI50 in test [1], in [2], in test [3], in [4], in test [5] and in test [6] was > 100 µM (inactive) in each case. Further, the GI50 in test [7] was > 100 µM (inactive); in test [8], > 100 µM (inactive); in [9], > 100 µM (inactive); in test [10], > 31.6 µM (inactive); in test [11], > 100 µM (inactive); in [12], > 100 µM (inactive). The GI50 in [13], in test [14], in test [15], in [16], in test [17] and in test [18] was > 100 µM (inactive) throughout. The GI50 in test [19] and in test [20] was > 100 µM (inactive) in each case.
